Results from patent US20070128217A1 (priority 2003, published 2007).

Assays:
[1] = system: antibodies in sera from SARS patients (sera 1a, 1b, 2, 6, 37, 62, London, SARS-yellow, SARS-green); format: binding, human; parameters: Binding of serum 6 to linear peptides of protein X1 of SARS-CoV Urbani / Binding of serum 37 to linear peptides of protein X1 of SARS-CoV Urbani / Binding of serum 6 to looped/cyclic peptide (PEPSCAN-ELISA) / Binding of serum 37 to looped/cyclic peptide (PEPSCAN-ELISA) / Binding of serum 37 to looped/cyclic peptides of protein X1 of SARS-CoV Urbani / Binding of serum 6 to linear peptides of protein X2 / Binding of serum 37 to linear peptides of protein X2 / Binding of serum 37 to looped/cyclic peptides of protein X2 of SARS-CoV Urbani / Binding of serum 6 to linear peptides of protein M of SARS-CoV Urbani / Binding of serum 37 to linear peptides of protein M of SARS-CoV Urbani / Binding of serum 6 to looped/cyclic peptides of protein M of SARS-CoV Urbani / Binding of serum 37 to looped/cyclic peptides of protein M of SARS-CoV Urbani / Binding of serum 6 to linear peptides of protein X3 of SARS-CoV Urbani / Binding of serum 37 to linear peptides of protein X3 of SARS-CoV Urbani / Binding of serum 37 to looped/cyclic peptides of protein X3 of SARS-CoV Urbani / Binding of serum 6 to linear peptides of protein X4 of SARS-CoV Urbani / Binding of serum 37 to linear peptides of protein X4 of SARS-CoV Urbani / Binding of serum 37 to looped/cyclic peptides of protein X4 of SARS-CoV Urbani / Binding of serum 6 to linear peptides of protein X5 of SARS-CoV Urbani / Binding of serum 37 to linear peptides of protein X5 of SARS-CoV Urbani / Binding of serum 37 to looped/cyclic peptides of protein X5 of SARS-CoV Urbani / Binding of serum 6 to linear peptides of protein N of SARS-CoV Urbani / Binding of serum 37 to linear peptides of protein N of SARS-CoV Urbani / Binding of serum 6 to linear peptide (PEPSCAN-ELISA) / Binding of serum 1a to looped/cyclic peptides of protein N of SARS-CoV Urbani / Binding of serum 1b to looped/cyclic peptides of protein N of SARS-CoV Urbani / Binding of serum 2 to looped/cyclic peptides of protein N of SARS-CoV Urbani / Binding of serum 6 to looped/cyclic peptides of protein N of SARS-CoV Urbani / Binding of serum 37 to looped/cyclic peptides of protein N of SARS-CoV Urbani / Binding of serum 62 to looped/cyclic peptides of protein N of SARS-CoV Urbani / Binding of serum London to looped/cyclic peptides of protein N of SARS-CoV Urbani / Binding of serum SARS-green to looped/cyclic peptides of protein N of SARS-CoV Urbani: unit not given here
[2] = system: control sera (pooled serum of ten healthy LUMC hospital workers; commercial negative donor pooled serum from the Dutch bloodbank); format: binding, human; parameters: Binding of Control serum LUMC to linear peptides / Binding of Control serum Blood-bank to linear peptides / Binding of Control serum LUMC to looped peptides / Binding of Control Serum Blood-Bank to Looped peptides / Binding of Control serum LUMC to linear peptides of the protein M of SARS-CoV Urbani / Binding of Control serum Blood-bank to linear peptides of the protein M of SARS-CoV Urbani / Binding of Control serum LUMC to looped peptides of the protein M of SARS-CoV Urbani / Binding of Control Serum Blood-Bank to Looped peptides of the protein M of SARS-CoV Urbani: unit not given here
[3] = system: rabbit serum obtained by immunizing a rabbit with the SARS-CoV strain Frankfurt 1; format: binding; parameters: Binding of a rabbit serum to linear peptides / Binding of a rabbit serum to looped peptides / Rabbit serum linear peptides / Rabbit serum looped peptides / Binding of a rabbit serum to linear peptides of protein N of SARS-CoV Urbani (Rabbit serum linear peptides) / Binding of a rabbit serum to looped/cyclic peptides of protein N of SARS-CoV Urbani (Rabbit serum looped peptides): unit not given here

FTSCELYHYQECVRG
Binding of serum 1a to linear peptides of protein X4 of SARS-CoV Urbani [1]: 0.8 | Binding of serum 1a to looped/cyclic peptides of protein X4 of SARS-CoV Urbani [1]: 0.8 | Binding of serum 1b to linear peptides of protein X4 of SARS-CoV Urbani [1]: 0.7 | Binding of serum 1b to looped/cyclic peptides of protein X4 of SARS-CoV Urbani [1]: 0.7 | Binding of serum 2 to linear peptides of protein X4 of SARS-CoV Urbani [1]: 0.5 | Binding of serum 2 to looped/cyclic peptides of protein X4 of SARS-CoV Urbani [1]: 0.6 | Binding of serum 6 to linear peptides of protein X4 of SARS-CoV Urbani [1]: 0.9 | Binding of serum 6 to looped/cyclic peptides of protein X4 of SARS-CoV Urbani [1]: 0.6 | Binding of serum 37 to linear peptides of protein X4 of SARS-CoV Urbani [1]: 0.8 | Binding of serum 37 to looped/cyclic peptides of protein X4 of SARS-CoV Urbani [1]: 0.8 | Binding of serum 62 to linear peptides of protein X4 of SARS-CoV Urbani [1]: 0.8 | Binding of serum 62 to looped/cyclic peptides of protein X4 of SARS-CoV Urbani [1]: 0.7 | Binding of serum London to linear peptides of protein X4 of SARS-CoV Urbani [1]: 0.9 | Binding of serum London to looped/cyclic peptides of protein X4 of SARS-CoV Urbani [1]: 0.3 | Binding of serum SARS-green to linear peptides of protein X4 of SARS-CoV Urbani [1]: 0.5 | Binding of serum SARS-green to looped/cyclic peptides of protein X4 of SARS-CoV Urbani [1]: 0.6 | Binding of serum SARS-yellow to linear peptides of protein X4 of SARS-CoV Urbani [1]: 0.3 | Binding of serum SARS-yellow to looped/cyclic peptides of protein X4 of SARS-CoV Urbani [1]: 0.5 | Binding of Control Serum Blood-Bank to Looped peptides [2]: 0.8 | Binding of Control serum Blood-bank to linear peptides [2]: 0.7 | Binding of Control serum LUMC to linear peptides [2]: 0.7 | Binding of Control serum LUMC to looped peptides [2]: 0.8 | Rabbit serum linear peptides [3]: 0.4 | Rabbit serum looped peptides [3]: 0.3

ILRIGTQVLKTMSLY
Binding of serum 1a to linear peptides of protein X2 [1]: 0.7 | Binding of serum 1a to looped/cyclic peptides of protein X2 of SARS-CoV Urbani [1]: 0.6 | Binding of serum 1b to linear peptides of protein X2 [1]: 0.5 | Binding of serum 1b to looped/cyclic peptides of protein X2 of SARS-CoV Urbani [1]: 0.5 | Binding of serum 2 to linear peptides of protein X2 [1]: 0.4 | Binding of serum 2 to looped/cyclic peptides of protein X2 of SARS-CoV Urbani [1]: 0.3 | Binding of serum 6 to linear peptides of protein X2 [1]: 0.4 | Binding of serum 6 to looped/cyclic peptides of protein X2 of SARS-CoV Urbani [1]: 0.5 | Binding of serum 37 to linear peptides of protein X2 [1]: 0.6 | Binding of serum 37 to looped/cyclic peptides of protein X2 of SARS-CoV Urbani [1]: 0.5 | Binding of serum 62 to linear peptides of protein X2 [1]: 0.6 | Binding of serum 62 to looped/cyclic peptides of protein X2 of SARS-CoV Urbani [1]: 0.6 | Binding of serum London to linear peptides of protein X2 [1]: 0.4 | Binding of serum London to looped/cyclic peptides of protein X2 of SARS-CoV Urbani [1]: 0.3 | Binding of serum SARS-green to linear peptides of protein X2 [1]: 0.4 | Binding of serum SARS-green to looped/cyclic peptides of protein X2 of SARS-CoV Urbani [1]: 0.3 | Binding of serum SARS-yellow to linear peptides of protein X2 [1]: 0.5 | Binding of serum SARS-yellow to looped/cyclic peptides of protein X2 of SARS-CoV Urbani [1]: 0.6 | Binding of Control Serum Blood-Bank to Looped peptides [2]: 0.7 | Binding of Control serum Blood-bank to linear peptides [2]: 0.6 | Binding of Control serum LUMC to linear peptides [2]: 0.4 | Binding of Control serum LUMC to looped peptides [2]: 0.7 | Binding of a rabbit serum to linear peptides [3]: 0.3 | Binding of a rabbit serum to looped peptides [3]: 0.5

IAIWNLDVIISSIVR
Binding of serum 1a to linear peptides of protein X3 of SARS-CoV Urbani [1]: 0.7 | Binding of serum 1a to looped/cyclic peptides of protein X3 of SARS-CoV Urbani [1]: 0.7 | Binding of serum 1b to linear peptides of protein X3 of SARS-CoV Urbani [1]: 0.5 | Binding of serum 1b to looped/cyclic peptides of protein X3 of SARS-CoV Urbani [1]: 0.3 | Binding of serum 2 to linear peptides of protein X3 of SARS-CoV Urbani [1]: 0.6 | Binding of serum 2 to looped/cyclic peptides of protein X3 of SARS-CoV Urbani [1]: 0.6 | Binding of serum 6 to linear peptides of protein X3 of SARS-CoV Urbani [1]: 0.5 | Binding of serum 6 to looped/cyclic peptides of protein X3 of SARS-CoV Urbani [1]: 0.4 | Binding of serum 37 to linear peptides of protein X3 of SARS-CoV Urbani [1]: 0.5 | Binding of serum 37 to looped/cyclic peptides of protein X3 of SARS-CoV Urbani [1]: 0.6 | Binding of serum 62 to linear peptides of protein X3 of SARS-CoV Urbani [1]: 0.6 | Binding of serum 62 to looped/cyclic peptides of protein X3 of SARS-CoV Urbani [1]: 0.5 | Binding of serum London to linear peptides of protein X3 of SARS-CoV Urbani [1]: 0.6 | Binding of serum London to looped/cyclic peptides of protein X3 of SARS-CoV Urbani [1]: 0.2 | Binding of serum SARS-green to linear peptides of protein X3 of SARS-CoV Urbani [1]: 0.3 | Binding of serum SARS-green to looped/cyclic peptides of protein X3 of SARS-CoV Urbani [1]: 0.0 | Binding of serum SARS-yellow to linear peptides of protein X3 of SARS-CoV Urbani [1]: 0.4 | Binding of serum SARS-yellow to looped/cyclic peptides of protein X3 of SARS-CoV Urbani [1]: 0.6 | Binding of Control Serum Blood-Bank to Looped peptides of the protein X3 of SARS-CoV Urbani [2]: 0.7 | Binding of Control serum Blood-bank to linear peptides of the protein X3 of SARS-CoV Urbani [2]: 0.6 | Binding of Control serum LUMC to linear peptides of the protein X3 of SARS-CoV Urbani [2]: 0.5 | Binding of Control serum LUMC to looped peptides of the protein X3 of SARS-CoV Urbani [2]: 0.7 | Rabbit serum linear peptides [3]: 0.3 | Rabbit serum looped peptides [3]: 0.3

AYSNRNRFLYIIKLV
Binding of serum 1a to linear peptides of protein M of SARS-CoV Urbani [1]: 0.7 | Binding of serum 1b to linear peptides of protein M of SARS-CoV Urbani [1]: 0.6 | Binding of serum 2 to linear peptides of protein M of SARS-CoV Urbani [1]: 0.6 | Binding of serum 6 to linear peptides of protein M of SARS-CoV Urbani [1]: 0.6 | Binding of serum 37 to linear peptides of protein M of SARS-CoV Urbani [1]: 0.4 | Binding of serum 62 to linear peptides of protein M of SARS-CoV Urbani [1]: 0.5 | Binding of serum London to linear peptides of protein M of SARS-CoV Urbani [1]: 0.3 | Binding of serum SARS-green to linear peptides of protein M of SARS-CoV Urbani [1]: 0.5 | Binding of serum SARS-yellow to linear peptides of protein M of SARS-CoV Urbani [1]: 0.2 | Recognition of the peptide by sera of SARS-CoV infected individuals, and form (linear, looped/cyclic) in which it is recognized [1]: recognized in looped/cyclic form | Binding of Control Serum Blood-Bank to Looped peptides of the protein M of SARS-CoV Urbani [2]: 0.6 | Binding of Control serum Blood-bank to linear peptides of the protein M of SARS-CoV Urbani [2]: 0.7 | Binding of Control serum LUMC to linear peptides of the protein M of SARS-CoV Urbani [2]: 0.7 | Binding of Control serum LUMC to looped peptides of the protein M of SARS-CoV Urbani [2]: 0.8 | Rabbit serum linear peptides [3]: 0.3 | Rabbit serum looped peptides [3]: 0.5

HSSSLTSLLKTHRMC
Binding of serum 1a to linear peptides of protein X2 [1]: 0.6 | Binding of serum 1a to looped/cyclic peptides of protein X2 of SARS-CoV Urbani [1]: 0.4 | Binding of serum 1b to linear peptides of protein X2 [1]: 0.5 | Binding of serum 1b to looped/cyclic peptides of protein X2 of SARS-CoV Urbani [1]: 0.4 | Binding of serum 2 to linear peptides of protein X2 [1]: 0.3 | Binding of serum 2 to looped/cyclic peptides of protein X2 of SARS-CoV Urbani [1]: 0.3 | Binding of serum 6 to linear peptides of protein X2 [1]: 0.5 | Binding of serum 6 to looped/cyclic peptides of protein X2 of SARS-CoV Urbani [1]: 0.2 | Binding of serum 37 to linear peptides of protein X2 [1]: 0.5 | Binding of serum 37 to looped/cyclic peptides of protein X2 of SARS-CoV Urbani [1]: 0.3 | Binding of serum 62 to linear peptides of protein X2 [1]: 0.6 | Binding of serum 62 to looped/cyclic peptides of protein X2 of SARS-CoV Urbani [1]: 0.4 | Binding of serum London to linear peptides of protein X2 [1]: 0.5 | Binding of serum London to looped/cyclic peptides of protein X2 of SARS-CoV Urbani [1]: 0.2 | Binding of serum SARS-green to linear peptides of protein X2 [1]: 0.5 | Binding of serum SARS-green to looped/cyclic peptides of protein X2 of SARS-CoV Urbani [1]: 0.3 | Binding of serum SARS-yellow to linear peptides of protein X2 [1]: 0.4 | Binding of serum SARS-yellow to looped/cyclic peptides of protein X2 of SARS-CoV Urbani [1]: 0.4 | Binding of Control Serum Blood-Bank to Looped peptides [2]: 0.5 | Binding of Control serum Blood-bank to linear peptides [2]: 0.8 | Binding of Control serum LUMC to linear peptides [2]: 0.4 | Binding of Control serum LUMC to looped peptides [2]: 0.5 | Binding of a rabbit serum to linear peptides [3]: 0.2 | Binding of a rabbit serum to looped peptides [3]: 0.5
